Laboratory results reported in PubChem BioAssay AID330 (DTP/NCI, 2004).
Where “and” joins values, the source holds several entries; their conditions need not be identical. Identical values can stand only once. Toxic doses and inconclusive results are not listed. The calls were made as follows: active = survival T/C of 150% or more; inactive = T/C below 125% in these data.

Test system: P388 leukemia ip, CD2F1 mice, survival T/C
Assay: NCI In Vivo Anticancer Drug Screen. Data for tumor model P388 Leukemia (intraperitoneal) in CD2F1 (CDF1) mice
Settings: endpoint: median survival time, higher = longer survival
Procedure, shortened: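 Mice carrying the transplanted tumor received test compound or vehicle. Survival was recorded in each group, and the value is the treated-group measurement divided by that of the vehicle-treated control group.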

[1] = dose: 12.5 mg/kg/injection, schedule: Q04DX003 (ip), vehicle: saline with Tween-80
[2] = dose: 25.0 mg/kg/injection, schedule: Q04DX003 (ip), vehicle: saline with Tween-80
[3] = dose: 50.0 mg/kg/injection, schedule: Q04DX003 (ip), vehicle: saline with Tween-80
[4] = dose: 100.0 mg/kg/injection, schedule: Q04DX003 (ip), vehicle: saline with Tween-80
[5] = dose: 50.0 mg/kg/injection, schedule: Q01DX005 (ip), vehicle: Klucel (hydroxypropylcellulose) (HPC)
[6] = dose: 100.0 mg/kg/injection, schedule: Q01DX005 (ip), vehicle: Klucel (hydroxypropylcellulose) (HPC)
[7] = dose: 200.0 mg/kg/injection, schedule: Q01DX005 (ip), vehicle: Klucel (hydroxypropylcellulose) (HPC)
[8] = dose: 50.0 mg/kg/injection, schedule: Q01DX009 (ip), vehicle: saline with Tween-80
[9] = dose: 100.0 mg/kg/injection, schedule: Q01DX009 (ip), vehicle: saline with Tween-80
[10] = dose: 60.0 mg/kg/injection, schedule: Q01DX005 (ip), vehicle: saline with Tween-80
[11] = dose: 120.0 mg/kg/injection, schedule: Q01DX005 (ip), vehicle: saline with Tween-80
[12] = dose: 240.0 mg/kg/injection, schedule: Q01DX005 (ip), vehicle: saline with Tween-80

Measured: T/C

CNC(=O)OCc1nc(-c2ccccc2)oc1COC(=O)NC
inactive: dose: 12.5 mg/kg/injection, schedule: Q01DX005 (ip), vehicle: distilled water + Tween-80 96 % of control | dose: 25.0 mg/kg/injection, schedule: Q01DX005 (ip), vehicle: distilled water + Tween-80 97 % of control | dose: 50.0 mg/kg/injection, schedule: Q01DX005 (ip), vehicle: distilled water + Tween-80 92 % of control | dose: 100.0 mg/kg/injection, schedule: Q01DX005 (ip), vehicle: distilled water + Tween-80 89 % of control | dose: 200.0 mg/kg/injection, schedule: Q01DX005 (ip), vehicle: distilled water + Tween-80 89 % of control

CCCCN=Cc1c(OC(C)=O)c(OC(C)=O)c(C(C)C)c2cc(C)c(-c3c(C)cc4c(C(C)C)c(OC(C)=O)c(OC(C)=O)c(C=NCCCC)c4c3OC(C)=O)c(OC(C)=O)c12
inactive: dose: 6.25 mg/kg/injection, schedule: Q01DX005 (ip), vehicle: Klucel (hydroxypropylcellulose) (HPC) 95 % of control | dose: 12.5 mg/kg/injection, schedule: Q01DX005 (ip), vehicle: Klucel (hydroxypropylcellulose) (HPC) 98 % of control | dose: 25.0 mg/kg/injection, schedule: Q01DX005 (ip), vehicle: Klucel (hydroxypropylcellulose) (HPC) 97 % of control

CC(=O)OC1CCC2(C)C3CCC4(C)C(=CCC5(C(=O)O)CCC(C)(C)CC45)C3(C)CCC2C1(C)C (stereo not drawn)
inactive: dose: 0.25 mg/kg/injection, schedule: Q01DX009 (ip), vehicle: saline + Tween-80 + alcohol 97 % of control | dose: 0.5 mg/kg/injection, schedule: Q01DX009 (ip), vehicle: saline + Tween-80 + alcohol 101 % of control | dose: 1.0 mg/kg/injection, schedule: Q01DX009 (ip), vehicle: saline + Tween-80 + alcohol 106 % of control | dose: 2.0 mg/kg/injection, schedule: Q01DX009 (ip), vehicle: saline + Tween-80 + alcohol 97 % of control | dose: 4.0 mg/kg/injection, schedule: Q01DX009 (ip), vehicle: saline + Tween-80 + alcohol 106 % of control

COc1cncn2nc(C)nc12
inactive: dose: 60.0 mg/kg/injection, schedule: Q01DX005 (ip), vehicle: saline 100 % of control | dose: 120.0 mg/kg/injection, schedule: Q01DX005 (ip), vehicle: saline 99 % of control | dose: 240.0 mg/kg/injection, schedule: Q01DX005 (ip), vehicle: saline 93 % of control

C/C(=N\[N+](C)(C)C)c1ccccc1
inactive: [1] 100 % of control | [2] 100 % of control | [3] 102 % of control | [4] 100 % of control

N#CCc1[nH]nc2ncnc(N)c12
inactive: dose: 6.25 mg/kg/injection, schedule: Q01DX009 (ip), vehicle: other 102 % of control | dose: 12.5 mg/kg/injection, schedule: Q01DX009 (ip), vehicle: other 103 % of control | dose: 25.0 mg/kg/injection, schedule: Q01DX009 (ip), vehicle: other 97 % of control | dose: 50.0 mg/kg/injection, schedule: Q01DX009 (ip), vehicle: other 97 % of control | dose: 100.0 mg/kg/injection, schedule: Q01DX009 (ip), vehicle: other 105 % of control

Nc1ccnc(F)n1
inactive: dose: 60.0 mg/kg/injection, schedule: Q01DX005 (ip), vehicle: Klucel (hydroxypropylcellulose) (HPC) 100 % of control | dose: 120.0 mg/kg/injection, schedule: Q01DX005 (ip), vehicle: Klucel (hydroxypropylcellulose) (HPC) 106 % of control | dose: 240.0 mg/kg/injection, schedule: Q01DX005 (ip), vehicle: Klucel (hydroxypropylcellulose) (HPC) 106 % of control

c1c(NC2=NCCO2)cc2c3c1CCCN3CCC2
inactive: [1] 90 % of control | [2] 100 % of control | [3] 109 % of control

CC(SC(C)C(=O)O)C(=O)O (stereo not drawn)
inactive: dose: 100.0 mg/kg/injection, schedule: Q04DX002 (ip), vehicle: saline 97 % of control | dose: 200.0 mg/kg/injection, schedule: Q04DX002 (ip), vehicle: saline 109 % of control

C/C(=N\Nc1nc2ccccc2s1)c1ccccn1
inactive: dose: 12.5 mg/kg/injection, schedule: Q01DX005 (ip), vehicle: saline with Tween-80 98 % of control | dose: 25.0 mg/kg/injection, schedule: Q01DX005 (ip), vehicle: saline with Tween-80 93 % of control | dose: 50.0 mg/kg/injection, schedule: Q01DX005 (ip), vehicle: saline with Tween-80 101 % of control and 91 % of control | dose: 100.0 mg/kg/injection, schedule: Q01DX005 (ip), vehicle: saline with Tween-80 104 % of control

Nc1nc2c(c(=O)[nH]1)CN(CCCN1CCN(CCCN3CNc4nc(N)[nH]c(=O)c4C3)CC1)CN2
inactive: [5] 94 % of control | [6] 99 % of control | [7] 91 % of control

O=C(Nc1cccc2c(OC(=O)C(Cl)Cl)c(N=Nc3ccc(S(=O)(=O)Nc4nccs4)cc3)cc(N=Nc3ccc(S(=O)(=O)Nc4nccs4)cc3)c12)C(Cl)Cl
inactive: [8] 109 % of control and 100 % of control and 104 % of control | [9] 108 % of control and 103 % of control and 106 % of control | dose: 200.0 mg/kg/injection, schedule: Q01DX009 (ip), vehicle: saline with Tween-80 107 % of control

CCOC(=O)C(C#N)C1(O)C(=O)Nc2ccccc21 (stereo not drawn)
inactive: [5] 104 % of control | [6] 102 % of control | [7] 103 % of control

CCOC(=O)N1C(=O)c2ccccc2C1=O
inactive: dose: 25.0 mg/kg/injection, schedule: Q01DX009 (ip), vehicle: saline with Tween-80 110 % of control | [2] 115 % of control | [8] 105 % of control | [3] 110 % of control | [9] 100 % of control | [4] 120 % of control

COc1ccc(/C=N/N2CN(C(CC(N)=O)C(=O)O)P(Nc3ncccn3)N=C2N)cc1OC (stereo not drawn)
inactive: [10] 104 % of control | [11] 102 % of control | [12] 95 % of control

S=C(S)N(Cc1ccccc1)Cc1ccccc1 (tested in a mixture with another compound)
inactive: [10] 105 % of control | [11] 105 % of control | [12] 101 % of control

CN(CCN(C)C(=S)SCc1ccccc1)C(=S)SCc1ccccc1
inactive: dose: 6.25 mg/kg/injection, schedule: Q01DX009 (ip), vehicle: Klucel (hydroxypropylcellulose) (HPC) 100 % of control | dose: 12.5 mg/kg/injection, schedule: Q01DX009 (ip), vehicle: Klucel (hydroxypropylcellulose) (HPC) 116 % of control | dose: 25.0 mg/kg/injection, schedule: Q01DX009 (ip), vehicle: Klucel (hydroxypropylcellulose) (HPC) 105 % of control

CN(C)C(=O)CC(O)c1ccccc1 (stereo not drawn)
inactive: dose: 50.0 mg/kg/injection, schedule: Q01DX005 (ip), vehicle: saline 102 % of control | dose: 100.0 mg/kg/injection, schedule: Q01DX005 (ip), vehicle: saline 105 % of control | dose: 200.0 mg/kg/injection, schedule: Q01DX005 (ip), vehicle: saline 100 % of control

Cc1cc(C)nc(/C=C/c2ccccc2)c1
inactive: [10] 104 % of control | [11] 105 % of control | [12] 106 % of control

CCOC(=O)NN(C(=O)OCC)/C(C(=O)OCC)=C(/C)N
inactive: dose: 50.0 mg/kg/injection, schedule: Q01DX009 (ip), vehicle: saline 97 % of control and 102 % of control and 93 % of control | dose: 100.0 mg/kg/injection, schedule: Q01DX009 (ip), vehicle: saline 97 % of control and 104 % of control | dose: 200.0 mg/kg/injection, schedule: Q01DX009 (ip), vehicle: saline 98 % of control and 89 % of control

COC(=O)C(=O)C1CSC2=C(CS(=O)(=O)c3ccccc32)C1=O (stereo not drawn)
inactive: [10] 98 % of control | [11] 104 % of control | [12] 104 % of control
